Assay results as given in patent US8476043B2, “Inhibitors for the soluble epoxide hydrolase” (The Regents of the University of California, priority 2004, dated 2013).
Values after ≈ are worked out from the molar mass of the structure shown.

How the values were obtained:
[1] = target: T1, human sEH (Homo sapiens, UniProt P34913); assay: sEH inhibition, fluorescent assay with cyano(6-methoxy-naphthalen-2-yl)methyl trans-[(3-phenyloxiran-2-yl)methyl]carbonate as substrate; assay type: biochemical
T1 construct: made in house
T1 sequence (P34913 1-555): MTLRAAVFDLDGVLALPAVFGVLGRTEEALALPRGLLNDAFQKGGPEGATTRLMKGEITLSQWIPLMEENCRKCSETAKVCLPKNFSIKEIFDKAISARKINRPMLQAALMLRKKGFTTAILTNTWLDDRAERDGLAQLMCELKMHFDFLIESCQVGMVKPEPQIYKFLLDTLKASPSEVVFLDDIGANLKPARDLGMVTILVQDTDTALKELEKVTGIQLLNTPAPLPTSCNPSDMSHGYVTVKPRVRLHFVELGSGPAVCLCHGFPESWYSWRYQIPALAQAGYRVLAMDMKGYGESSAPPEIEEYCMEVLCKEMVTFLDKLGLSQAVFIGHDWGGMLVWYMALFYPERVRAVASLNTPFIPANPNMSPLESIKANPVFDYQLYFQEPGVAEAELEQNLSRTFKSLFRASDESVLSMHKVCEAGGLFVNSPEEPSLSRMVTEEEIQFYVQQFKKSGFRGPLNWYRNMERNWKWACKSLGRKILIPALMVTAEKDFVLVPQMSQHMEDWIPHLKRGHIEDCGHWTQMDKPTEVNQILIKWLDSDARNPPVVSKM
Procedure, shortened: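 Affinity-purified recombinant human sEH from baculovirus expression; activity followed as formation of fluorescent 6-methoxy-2-naphthaldehyde from the carbonate substrate. IC50 by regression of at least five points, two on each side of the IC50 in the linear region, from at least three separate runs, each in triplicate.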

[2] = Solubility in water; assay type: physicochemical
[3] = target: T2, mouse sEH (Mus musculus, UniProt P34914); assay: sEH inhibition, spectrometric assay with racemic 4-nitrophenyl-trans-2,3-epoxy-3-phenylpropyl carbonate as substrate; assay type: biochemical; details: Table 5; spectrometric-based assay; read-out: Mouse sEH IC50
T2 construct: made in house
T2 sequence (P34914 1-554): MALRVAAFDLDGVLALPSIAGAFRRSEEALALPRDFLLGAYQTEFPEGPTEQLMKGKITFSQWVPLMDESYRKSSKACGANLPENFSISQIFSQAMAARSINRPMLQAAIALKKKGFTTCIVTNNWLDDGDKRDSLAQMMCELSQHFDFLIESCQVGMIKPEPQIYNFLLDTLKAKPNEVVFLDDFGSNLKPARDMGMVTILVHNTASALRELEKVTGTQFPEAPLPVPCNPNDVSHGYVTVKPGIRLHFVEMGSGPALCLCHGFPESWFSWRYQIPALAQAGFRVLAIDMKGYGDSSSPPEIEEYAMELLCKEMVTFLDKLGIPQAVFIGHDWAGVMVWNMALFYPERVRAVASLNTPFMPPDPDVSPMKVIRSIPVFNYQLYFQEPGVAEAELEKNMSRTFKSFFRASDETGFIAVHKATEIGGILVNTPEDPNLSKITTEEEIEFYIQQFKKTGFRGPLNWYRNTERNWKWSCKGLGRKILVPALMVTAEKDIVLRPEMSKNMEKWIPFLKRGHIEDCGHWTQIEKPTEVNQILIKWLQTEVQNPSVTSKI
Protocol: (§1) Recombinant mouse sEH and human sEH were produced in a baculovirus expression system and purified by affinity chromatography. […] Protein concentration was quantified by using the Pierce BCA assay using Fraction V bovine serum albumin as the calibrating standard.
(§2) IC50 values were determined in one of two method. One method uses racemic 4-nitrophenyl-trans-2,3-epoxy-3-phenylpropyl carbonate as substrate. […] Assays were performed in triplicate. […] The curve was generated from at least three separate runs, each in triplicate, to obtain the standard deviation (SD) given in Table 1 thru Table 4.

[4] = target: T1, human sEH; assay: as above; assay type: biochemical; details: Table 5; spectrometric-based assay; read-out: Human sEH IC50
Protocol: as §1, §2

[5] = Solubility in oil; assay type: physicochemical; details: Table 5
[6] = In vitro metabolism in liver microsomes and S9 fractions; assay type: in vitro ADME; details: rat and human microsomes, with NADPH
Description: Both rat and human microsomes were used for the 950 metabolism study.

Row | SMILES | IC50 ([1]; Table 5, fluorescent-based assay, 0.96 nM human sEH, pH 7.0, [S] = 5 μM, read-out: Human sEH IC50) [nM] | fold improvement in inhibition of the human enzyme ([1]; compared with 687 (compound 4)) | fold lower water solubility than compound 4 (687) [2] [fold] | solubility ([2]; water, Table 5) [µg/mL] | IC50 [3] [nM] | IC50 [4] [nM] | Solubility in oil [5] | major metabolite in vitro [6]
1 | CS(=O)(=O)NC(=O)CCCCCCCCCCCNC(=O)NC12CC3CC(CC(C3)C1)C2 [Compound 848, N-[12-(3-Adamantan-1-yl-ureido)dodecanoyl]methanesulfonamide] | 2.1 | about 1.5 fold | 3 | 10 (≈ 21.3 µM) | 50 ± 10 | 100 ± 10 | 4,000 μg/mL | –
2 | CCOCCOCCOCCCCCNC(=O)NC12CC3CC(CC(C3)C1)C2 [Compound 950] | – | – | – | – | – | – | – | hydroxy metabolite was the major metabolite
